Assays:
Assay in all cases: NCI-60 screen (SRB)
Assay type in all cases: cell-based
[1] = system: LOX IMVI; settings: Homo sapiens, Melanoma
Method: (§1) The human tumor cell lines of the cancer screening panel are grown in RPMI 1640 medium containing 5% fetal bovine serum and 2 mM L-glutamine. For a typical screening experiment, cells are inoculated into 96 well microtiter plates in 100 μL at plating densities ranging from 5,000 to 40,000 cells/well depending on the doubling time of individual cell lines. After cell inoculation, the microtiter plates are incubated at 37° C., 5% CO2, 95% air and 100% relative humidity for 24 h prior to addition of experimental drugs. After 24 h, two plates of each cell line are fixed in situ with TCA, to represent a measurement of the cell population for each cell line at the time of drug addition (Tz). Experimental drugs are solubilized in dimethyl sulfoxide at 400-fold the desired final maximum test concentration and stored frozen prior to use. At the time of drug addition, an aliquot of frozen concentrate is thawed and diluted to twice the desired final maximum test concentration with complete medium containing 50 µg/ml gentamicin. An additional four, 10-fold or M log serial dilutions are made to provide a total of five drug concentrations plus control. Aliquots of 100 μl of these different drug dilutions are added to the appropriate microtiter wells already containing 100 μl of medium, resulting in the required final drug concentrations. Following drug addition, the plates are incubated for an additional 48 h at 37° C., 5% CO2, 95% air, and 100% relative humidity. For adherent cells, the assay is terminated by the addition of cold TCA. Cells are fixed in situ by the gentle addition of 50 μl of cold 50% (w/v) TCA (final concentration, 10% TCA) and incubated for 60 minutes at 4° C. The supernatant is discarded, and the plates are washed five times with tap water and air dried. Sulforhodamine B (SRB) solution (100 l) at 0.4% (w/v) in 1% acetic acid is added to each well, and plates are incubated for 10 minutes at room temperature. After staining, unbound dye is removed by washing five times with 1% acetic acid and the plates are air dried. Bound stain is subsequently solubilized with 10 mM trizma base, and the absorbance is read on an automated plate reader at a wavelength of 515 nm. For suspension cells, the methodology is the same except that the assay is terminated by fixing settled cells at the bottom of the wells by gently adding 50 μl of 80% TCA (final concentration, 16% TCA).

[2] = system: 786-0; settings: Homo sapiens; 786-0, Renal Cancer
Method: as §1

[3] = system: BT-549; settings: Homo sapiens; BT-549, Breast Cancer
Method: as §1

[4] = system: CCRF-CEM; settings: Homo sapiens, Leukemia
Method: as §1

[5] = system: DU-145; settings: Homo sapiens; DU-145, Prostate Cancer
Method: as §1

[6] = system: MCF7; settings: Homo sapiens; MCF7, Breast Cancer
Method: as §1

[7] = system: SN12C; settings: Homo sapiens, Renal Cancer
Method: as §1

[8] = system: SK-OV-3; settings: Homo sapiens; SK-OV-3, Ovarian Cancer
Method: as §1

[9] = system: NCI-H23; settings: Homo sapiens; NCI-H23, Non-Small Cell Lung Cancer
Method: as §1

[10] = system: HL-60(TB); settings: Homo sapiens, Leukemia
Method: as §1

[11] = system: T-47D; settings: Homo sapiens, T47D, Breast Cancer
Method: as §1

[12] = system: NCI/ADR-RES; settings: Homo sapiens, Ovarian Cancer
Method: as §1

[13] = system: HT29; settings: Homo sapiens, HT-29; HT29, Colon Cancer
Method: as §1

[14] = system: CAKI-1; settings: Homo sapiens; CAKI-1, Renal Cancer
Method: as §1

[15] = system: SNB-19; settings: Homo sapiens; SNB-19, CNS Cancer
Method: as §1

[16] = system: OVCAR-8; settings: Homo sapiens; OVCAR-8, Ovarian Cancer
Method: as §1

[17] = system: HCC-2998; settings: Homo sapiens; HCC-2998, Colon Cancer
Method: as §1

[18] = system: MDA-MB-435; settings: Homo sapiens; MDA-MB-435, Melanoma
Method: as §1

[19] = system: SK-MEL-28; settings: Homo sapiens; SK-MEL-28, Melanoma
Method: as §1

[20] = system: A549/ATCC; settings: Homo sapiens, Non-Small Cell Lung Cancer
Method: as §1

[21] = system: NCI-H460; settings: Homo sapiens; NCI-H460, Non-Small Cell Lung Cancer
Method: as §1

[22] = system: OVCAR-5; settings: Homo sapiens; OVCAR-5, Ovarian Cancer
Method: as §1

[23] = system: MDA-MB-231/ATCC; settings: Homo sapiens, Breast Cancer
Method: as §1

[24] = system: RXF 393; settings: Homo sapiens; RXF 393, Renal Cancer
Method: as §1

[25] = system: UACC-257; settings: Homo sapiens; UACC-257, Melanoma
Method: as §1

[26] = system: HCT-116; settings: Homo sapiens; HCT-116, Colon Cancer
Method: as §1

[27] = system: PC-3; settings: Homo sapiens; PC-3, Prostate Cancer
Method: as §1

[28] = system: MOLT-4; settings: Homo sapiens; MOLT-4, Leukemia
Method: as §1

[29] = system: K-562; settings: Homo sapiens, K562; K-562, Leukemia
Method: as §1

Compound | GI50 [1] [nM] | GI50 [2] [nM] | GI50 [3] [nM] | GI50 [4] [nM] | GI50 [5] [nM] | GI50 [6] [nM] | GI50 [7] [nM] | GI50 [8] [nM] | GI50 [9] [nM] | GI50 [10] [nM] | GI50 [11] [nM] | GI50 [12] [µM] | GI50 [13] [nM] | GI50 [14] [nM] | GI50 [15] [µM] | GI50 [16] [µM] | GI50 [17] [nM] | GI50 [18] [nM] | GI50 [19] [nM] | GI50 [20] [nM] | other results
COc1cc2nccc(Oc3ccc(NC(=O)C4(NC(=O)c5ccc(F)cc5)CC4)cc3F)c2cc1OC [Cbo-02, N-(1-((4-((6,7-diMethoxyquinolin-4-yl)oxy)-3-fluorophenyl)carbamoyl)cyclopropyl)-4-fluorobenzamide] | 1990 | 1980 | 1430 | 2240 | 3360 | 3260 | 1210 | 2270 | 2060 | 2200 | 2120 | 4.9 | 1820 | 1540 | 3.52 | 3.03 | 2500 | 1890 | 1610 | 3270 | GI50 [21]: 2750 nM; GI50 [22]: 1910 nM; GI50 [23]: 1740 nM; GI50 [24]: 2050 nM; GI50 [25]: 2830 nM; GI50 [26]: 1520 nM; GI50 [27]: 3.94 µM; GI50 [28]: 5040 nM; GI50 [29]: 3050 nM
COc1cc2nccc(Oc3ccc(NC(=O)C4(NC(=O)c5ccc(F)cc5)CC4)cc3F)c2cc1Oc1ccc(N)cc1F [Cbo-10] | 1780 | > 100000 | 2410 | 436 | 1700 | 771 | 111 | 302 | 1040 | 521 | 1650 | > 100 | 413 | 276 | > 100 | > 100 | 6040 | 737 | 1810 | 483 | GI50 [21]: 1300 nM; GI50 [22]: 644 nM; GI50 [23]: 4430 nM; GI50 [24]: > 100000 nM; GI50 [25]: 1720 nM; GI50 [26]: 2630 nM; GI50 [27]: > 100 µM; GI50 [28]: 777 nM; GI50 [29]: 1740 nM
COc1cc2nccc(Oc3ccc(NC(=O)C4(C(=O)Nc5ccc(F)cc5)CC4)cc3F)c2cc1Oc1ccc(N)cc1F [Cbo-23] | 306 | 860 | 2270 | 553 | 429 | 294 | 199 | 464 | 339 | 596 | 617 | 2.04 | 2150 | 192 | 3.13 | 2.06 | 2280 | 363 | 463 | 325 | GI50 [21]: 457 nM; GI50 [22]: 389 nM; GI50 [23]: 981 nM; GI50 [24]: 103 nM; GI50 [25]: 367 nM; GI50 [26]: 592 nM; GI50 [27]: 1.6 µM; GI50 [28]: 1230 nM; GI50 [29]: 130 nM

— US20250120967A1, “TYROSINE KINASES INHIBITORS AND USES THEREOF” (GREAT NOVEL THERAPEUTICS BIOTECH & MEDICALS CORPORATION, priority 2023, published 2025)
